These results are taken from paper PMC9061853, “Luminescent bis(benzo[d]thiazolyl)quinoxaline: facile synthesis, nucleic acid and protein BSA interaction, live-cell imaging, biopharmaceutical research and cancer theranostic application” (RSC Advances, 2019).

For data set [1], the target named is T1, BSA (Bos taurus, UniProt P02769).
T1 construct: purchased Himedia Chemical Limited
The data set is described as follows: BSA binding study (tryptophan emission quenching). The arrangement: species or system bovine. The method, then:
Serum albumin has the capacity to bind with the ligands and helps in the uptake of the drug inside the cells. BSA is commonly used in this study because of its similar structural homology to HSA. […] A significant quenching of BSA fluorescence can be observed upon interaction with drug molecule.[27] The BSA solution of 3 μM concentration was titrated against 10–100 μM of the drug 7e upon excitation of 280 nm. […] The Stern–Volmer constant (KBSA), quenching constant (Kq), binding constant (K), a number of binding sites (n) were calculated from the eqn (5) and (6) (Fig. S4b and c ^†). The Kq values of the newly synthesized compounds were in the order of 10^12 M^−1 s^−1 which were higher enough than maximum scatter collision quenching constant (2.0 × 10^10 M^−1 s^−1) of BSA quenchers (Table 2).[28] High potency of these complexes in cancer cells may be attributed by the strong binding with serum albumin which overcomes the drug resistance by GSH. […]
BSA is a carrier protein that increases solubility of the drug in the blood by binding to it.
Fluorescence spectroscopy is an efficient method to study the interaction of the BSA with the compound by quenching mechanism. The binding of the complexes to the bovine serum albumin (BSA) were measured by tryptophan emission quenching study. The complex […]
solutions (0-60 μM) were gradually added to the solution of BSA (2 μM) in 5 mM Tris- […]
HCl/NaCl buffer (pH 7.2) and the quenching of the emission signals at 350 nm (λex = 295 […]
nm) were recorded. The emission intensity of BSA decreases gradually on increasing the […]
complex concentration. The quenching constant (KBSA) has been determined quantitatively by […]
using Stern-Volmer equation. Stern-Volmer plots of I0/I vs. [complex] were made using the […]
corrected fluorescence data taking into account the effect of dilution. Linear fit of the data […]
Where I0 and I are the emission intensities of BSA in the absence and in the presence of […]
quencher of concentration [Q], gave the quenching constant (K BSA) using Origin Pro 8.5 […]
software. kq is the quenching rate constant, τ0 is the average lifetime of the tryptophan in BSA […]
without quencher reported as 1 x 10-8 sec. The binding propensity of the quenchers with […]
respective serum proteins were expressed by Scatchard equation. For such static quenching […]
interaction, the binding constant (K) and the number of binding sites (n) can be determined […]
according to the Scatchard equation: […]
The linear fitting of the log (I0-I)/I vs. log [Q] plot gives values of n and K from slope and […]
2.8. Stability study, Solubility study, metabolic stability study, Caco-2 permeability study
%Nominal = Mean of calculated concentration of test samples ×100 ….(7) […]
Calculated concentration from calibration curve
CL = k × volume of reaction mixture (mL) … (8) […]
intr protein content (mg)

The nature of data set [2]: Stability in water, GSH and MTT condition by UV-vis spectroscopy. The format is physicochemical. How it is done: The stability of compounds in water, GSH, and MTT condition (10% DMSO in PBS buffer) was studied. Water is a key factor because it widens the application in the biological field. […] The stability of complex 7e in water (pH 7.2) and GSH were investigated by UV-vis spectroscopy over a period of 20 h of time (Fig. S2a and b ^†).

Data set [3] can be described thus: Buffer stability (LC-MS/MS). Conditions: pH 7.4 buffer, read-out: % Remaining in 120 min. It counts as physicochemical. The method, then:
LC-MS/MS methods were developed for compound 7g to quantify the drug concentration and in vitro study (i.e. buffer solubility, buffer stability, metabolic stability, and permeability) in a systemic manner (Table 4). Chromatographic elution conditions were set with the use of 5 mM ammonium formate containing 0.1% formic acid and acetonitrile containing 0.1% formic acid with C8, Kromasil, and 4.6 × […] as a stationary phase (Fig. S5a and b ^†). […] For the data analysis, % accuracy of compound 7g was calculated and it was soluble up to 25 μM (Fig. 3, eqn (7) ^†).
The in vitro solubility and stability of 7g were evaluated in pH 7.4 buffer. The buffer solubility and stability studies were conducted at six different concentrations ranging from 3.13 to 100 μM. For the data analysis, % stability of compound 7g at 120 min was calculated with respect to 0 min time point samples and it was stable up to 2 hours in pH 7.4 buffers. Data analysis was performed through the eqn (8) ^† and was tabulated (Table 4). Compound 7g found to be stable up to 2 hours with % remaining of 71% in pH 7.4.

A short description of data set [4]: Metabolic stability in rat liver microsomes. It counts as in vitro ADME. Conditions: for % Metabolism in 30 min: 0.5 μM, 0.5 mg ml^−1 protein, NADPH, 37 °C; for half-life at 0.5 μM: rat, liver microsomes. The method, then:
The in vitro metabolic rate of 7g was determined in liver microsomes and the intrinsic clearance (CLintr) was estimated. The study was conducted at 0.5 μM substrate concentration and microsomal protein concentration of 0.5 mg ml^−1. Metabolic stability study in the presence of microsomes and cofactor NADPH was performed at 37 °C, 60 rpm for 30 min time duration. NADPH free control incubation was performed simultaneously for 30 min to understand if there are any non-enzymatic metabolism related issues. […] Intrinsic clearance as given in Table 6, was calculated using eqn (8). ^†

Data set [5] is described as follows: Biopharmaceutical classification (BCS / BDDCS). To be noted: primarily classified.

Structures are written as SMILES.

T1 sequence (P02769 25-607): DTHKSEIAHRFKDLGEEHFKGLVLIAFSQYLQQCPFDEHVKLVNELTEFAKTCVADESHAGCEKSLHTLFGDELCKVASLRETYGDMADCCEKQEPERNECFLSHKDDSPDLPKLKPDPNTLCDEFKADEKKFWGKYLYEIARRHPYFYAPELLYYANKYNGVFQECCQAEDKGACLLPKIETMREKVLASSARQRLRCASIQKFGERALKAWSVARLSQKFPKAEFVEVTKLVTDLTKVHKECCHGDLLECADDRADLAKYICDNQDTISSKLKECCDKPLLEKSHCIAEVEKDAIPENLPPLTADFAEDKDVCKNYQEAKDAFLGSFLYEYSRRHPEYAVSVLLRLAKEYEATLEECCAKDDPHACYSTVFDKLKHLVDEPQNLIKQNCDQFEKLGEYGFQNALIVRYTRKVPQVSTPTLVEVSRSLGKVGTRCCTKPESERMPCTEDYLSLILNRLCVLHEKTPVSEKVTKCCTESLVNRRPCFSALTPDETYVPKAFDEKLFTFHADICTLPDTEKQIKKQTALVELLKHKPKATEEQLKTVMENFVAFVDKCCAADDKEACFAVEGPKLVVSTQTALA

In the case of `Clc1cc2nc(COc3ccccc3-c3nc4ccccc4s3)c(COc3ccccc3-c3nc4ccccc4s3)nc2cc1Cl` [Compound 7e], in data set [1], the “K BSA, Stern–Volmer quenching constant” value was determined as 10200 M⁻¹ and the “K q, quenching rate constant” value was 1.02e+12 M⁻¹ s⁻¹. In addition, in data set [1] (BSA 3 μM titrated with 10–100 μM drug, excitation 280 nm), the “quenching of BSA fluorescence” value is “more than 50%”. Moreover, the “n, number of binding sites” value in data set [1] (Scatchard equation) was found to be 1.87. Further, the Kd in data set [1] (Scatchard equation, read-out: K, binding constant with BSA (converted)) was 3.82 mM. Further, the “stability in MTT condition” value in data set [2] (10% DMSO in PBS buffer, 18 h) was “insignificant change of absorbance”. For the same compound, the “stability in GSH” value in data set [2] (GSH, 20 h) was “no changes in absorbance”. Besides, in data set [2] (water pH 7.2, 20 h), the stability in water result is “no changes in absorbance”.
In general, half-life refers to the time needed for the level to fall by half in the phase considered. The low end stands for fast loss, the high end for slow loss. Take `COc1ccc2nc(COc3ccccc3-c3nc4ccccc4s3)c(COc3ccccc3-c3nc4ccccc4s3)nc2c1` [Compound 7g, 2,2'-((((6-methoxyquinoxaline-2,3-diyl)bis(methylene))bis(oxy))bis(2,1-phenylene))bis(benzo[d]thiazole)]: the share remaining at 2 h, 3.13 μM in data set [3] (3.13 μM) worked out at 59%. In data set [3] (6.25 μM), the amount remaining at 2 h, 6.25 μM is 68%. For the same compound, in data set [3] (12.50 μM), the share remaining at 2 h, 12.5 μM is 81%. For the same compound, the share remaining at 2 h, 25 μM in data set [3] (25.00 μM) was 110%. Also, the share remaining at 2 h, 50 μM in data set [3] (50.00 μM) is 110%. In addition, the fraction remaining at 2 h, 100 μM in data set [3] (100.00 μM) was 71%. Further, in data set [4] (RLM set 1), the CLint was found to be 4 μl per min per mg protein, the “% Metabolism in 30 min” value worked out at 12% and the half-life at 0.5 μM came out at 5.85 h. Further, in data set [4] (RLM set 2), the CLint is given as 14 μl per min per mg protein, the “% Metabolism in 30 min” value amounted to 19% and the half-life at 0.5 μM was 1.69 h. In data set [5], the BCS class entry is on record as “BCS class 4” and the BDDCS class entry is on record as “BDDCS class 4”.
